The values below are quoted from earlier work in patent US20120070506A1, “Animal Treatment” (BOMAC RESEARCH LIMITED, priority 2009, published 2012).

The data set relates to animals. To be noted: veterinary treatment.

Turning to `CC(C(=O)O)c1ccc2c(c1)[nH]c1ccc(Cl)cc12` (stereo not drawn) [carprofen, 6-chloro-alpha-methyl-9H-carbozole-2-acetic acid], the known adverse effect result is “hepatotoxicity (acute hepatic necrosis) or other liver damage”.
